The subject of the experiment is generation of reactive oxygen species in the murine kidney membrane. Nature of the experiment: Lucigenin-based assay of reactive oxygen species generation in isolated kidney membrane. In kind it is biochemical, rat (Rattus norvegicus). The settings on record: 37° C. for 10 minutes, luminescence, compound 40, 10, 2.5, 0.625, 0 μM, read-out: EC50 (inhibition of generation of reactive oxygen species). As to the method:
A kidney was isolated from a rat (Rattus norvegicus) and washed with phosphate buffered saline (PBS). The tissue was soaked in 20 mL of PBS buffer containing a protease inhibitor (Aprotinin 1 μg/mL-USB 11388, Leupeptin 1 μg/mL-USB-18413), finely disrupted using a mixer, and then transferred to a 50 mL conical tube (SPL 50050), followed by centrifugation at 10000 g for 10 minutes (MF-600 plus, Hanil) to sediment the undisrupted tissue. The supernatant was separated and collected in a fresh tube. The tube was placed in ice and subjected to sonication about 4 times each cycle for 30 seconds until the supernatant became clear (Branson Digital Sonifier, Model CE Converter 102C). The supernatant was transferred to a high-speed centrifugation tube (Beckman 331372) and then centrifuged at 100000 g for 1 hour (Optima™ L-90 K Preparative Ultracentrifuge, SW41Ti rotor, Beckman). After the supernatant was discarded, the remaining pellet was washed once with cold PBS and dissolved in 500 μL of cold PBS containing a protease inhibitor to obtain a murine kidney membrane.
Reactive oxygen species generated in the thus-obtained kidney membrane was analyzed by a lucigenin-based assay.
Specifically, each of the compounds synthesized in Examples of the present invention (40 μM, 10 μM, 2.5 μM, 0.625 μM, and 0 μM) was placed in a luminescence assay microplate, and the isolated kidney membrane and lucigenin were sequentially added thereto, followed by incubation at 37° C. for 10 minutes. Then, the intensity of luminescence was measured in a luminometer (MicroLumatPlus LB96V Microplate Luminometer, Berthold) to assay the generation of reactive oxygen species in the murine kidney membrane, followed by calculating an EC50 value of the inventive compounds.

The structures appear in SMILES notation.

For `Oc1cc(-c2cccc(-c3cccc(-c4ccccc4)c3)c2)nn1-c1ccccn1` [Compound 67, 3-(3′-phenylbiphenyl-3-yl)-1-(pyridin-2-yl)-1H-pyrazol-5-ol], the EC50 was 400 nM.
As to `Oc1cc(-c2ccc(I)cc2)nn1-c1ccccn1` [Compound 18, 3-(4-iodophenyl)-1-(pyridin-2-yl)-1H-pyrazol-5-ol], the EC50 is 450 nM.
Turning to `CC(=O)Oc1cc(-c2ccc(Br)cc2)nn1-c1ccccn1` [Compound 26, 3-(4-bromophenyl)-1-(pyridin-2-yl)-1H-pyrazol-5-yl acetate], the EC50 stood at 1300 nM.
`Oc1cc(-c2ccc(-c3ccccc3)cc2)nn1-c1ncccn1` [Compound 75, 3-(biphenyl-4-yl)-1-(pyrimidin-2-yl)-1H-pyrazol-5-ol]: the EC50 worked out at 600 nM.
With `CC(C)[Si](Oc1cc(-c2ccc(-c3ccc(Br)cc3)cc2)nn1-c1ccccn1)(C(C)C)C(C)C` [Compound 51, 2-(3-(4′-bromobiphenyl-4-yl)-5-(triisopropylsilyloxy)-1H-pyrazol-1-yl)pyridine] the figure was 400 nM; with `Oc1cc(-c2ccc(-c3ccccc3)cc2)nn1-c1ccccn1` [Compound 54, 3-(biphenyl-4-yl)-1-(pyridin-2-yl)-1H-pyrazol-5-ol], 400 nM.
As to `Oc1cc(-c2ccc(-c3ccccc3Oc3ccccc3)cc2)nn1-c1ccccn1` [Compound 74, 3-(2′-phenoxybiphenyl-4-yl)-1-(pyridin-2-yl)-1H-pyrazol-5-ol], the EC50 was 400 nM.
With `Oc1cc(-c2ccccc2I)nn1-c1ccccn1` [Compound 16, 3-(2-iodophenyl)-1-(pyridin-2-yl)-1H-pyrazol-5-ol] the figure was 2500 nM; with `Oc1cc(-c2cccc(-c3ccccc3)c2)nn1-c1ccccn1` [Compound 61], 400 nM; with `c1ccc(B(Oc2cc(-c3ccc(-c4ccccc4)cc3)nn2-c2ccccn2)c2ccccc2)cc1` [Compound 52, 2-(3-(biphenyl-4-yl)-5-(diphenylboryloxy)-1H-pyrazol-1-yl)pyridine], 500 nM.
To `Oc1cc(-c2ccc(I)cc2)nn1-c1ncccn1` [Compound 19, 3-(4-iodophenyl)-1-(pyrimidin-2-yl)-1H-pyrazol-5-ol] belongs 800 nM; to `Oc1c(Cc2ccccc2)c(-c2ccccc2)nn1-c1ccccn1` [Compound 79, 4-benzyl-3-phenyl-1-(pyridin-2-yl)-1H-pyrazol-5-ol], 3000 nM.
Take `Oc1cc(-c2ccccc2-c2ccc3c(c2)OCO3)nn1-c1ccccn1` [Compound 59, 3-(2-(benzo[d][1,3]dioxol-5-yl)phenyl)-1-(pyridin-2-yl)-1H-pyrazol-5-ol]: the EC50 came out at 1400 nM.
To `Oc1cc(-c2cccc(-c3ccccc3Oc3ccccc3)c2)nn1-c1ccccn1` [Compound 65, 3-(2′-phenoxybiphenyl-3-yl)-1-(pyridin-2-yl)-1H-pyrazol-5-ol] belongs 625 nM.
To `Oc1cc(-c2ccc(-c3ccc4c(c3)OCO4)cc2)nn1-c1ccccn1` [Compound 55, 3-(4-(benzo[d][1,3]-dioxol-5-yl)phenyl)-1-(pyridin-2-yl)-1H-pyrazol-5-ol] belongs 500 nM; to `CC(C)[Si](Oc1cc(-c2ccc(I)cc2)nn1-c1ccccn1)(C(C)C)C(C)C` [Compound 20, 2-(3-(4-iodophenyl)-5-(triisoropylsilyloxy)-1H-pyrazol-1-yl)pyridine], 1500 nM.
Regarding `CC(C)(C)OC(=O)Oc1cc(-c2ccc(-c3ccccc3)cc2)nn1-c1ncccn1` [Compound 48, 3-(biphenyl-4-yl)-1-(pyrimidin-2-yl)-1H-pyrazol-5-yl tert-butyl carbonate], the EC50 is 1200 nM.
To `Oc1cc(-c2ccc(Br)cc2)nn1-c1ccccn1` [Compound 15, 3-(4-bromophenyl)-1-(pyridin-2-yl)-1H-pyrazol-5-ol] belongs 1200 nM; to `Oc1cc(-c2cccc(I)c2)nn1-c1ccccn1` [Compound 17, 3-(3-iodophenyl)-1-(pyridin-2-yl)-1H-pyrazol-5-ol], 700 nM; to `Oc1cc(-c2ccc(-c3ccc(Br)cc3)cc2)nn1-c1ccccn1` [Compound 72, 3-(4′-bromobiphenyl-4-yl)-1-(pyridin-2-yl)-1H-pyrazol-5-ol], 2500 nM.
Regarding `CCCc1c(-c2ccccc2)nn(-c2ccccn2)c1O` [Compound 78, 3-phenyl-4-propyl-1-(pyridin-2-yl)-1H-pyrazol-5-ol], the EC50 was 10000 nM.

For the origin of these results see US9000176B2, “Pyrazole derivatives, preparation method thereof, and composition for prevention and treatment of osteoporosis containing same” (Ewha University—Industry Collaboration Foundation, priority 2009, dated 2015).
